# Assay results taken from EPA's ToxValDB 9.5.
# Test system: Rattus norvegicus
# Details: oral
# [1] = subchronic, gavage, M, Sprague-Dawley, Deaths + Clinical Observation: Salivation + Body Weight Changes: Body weight gain decrease + Food Consumption: decrease + Urinalysis: Brown …
# [2] = short-term, duration: 28 days, gavage, M, Sprague-Dawley, Clinical Observation: Diarrhea + Body Weight Changes: decrease + Food Consumption: decrease + Urinalysis: Color, Brown + Hematology: RET …
# [3] = short-term, duration: 28 days, gavage, M, Sprague-Dawley, Clinical Observation: Locomotor activity decrease, Respiratory rate decrease, Incomplete eyelid opening + Blood Chemistry: TG decrease + …
structure (smiles),measurement,setting,value
Cn1c(=O)c2[nH]cnc2n(C)c1=O [Theophylline],NOEL,"chronic, duration: 14 weeks, diet, F, Fischer 344, Absolute Organ Weight: Right kidney increase, Lung increase + Relative Organ Weight: Right kidney increase, Lungs increase + Histopathology…",< 75 mg/kg-day
same,NOEL,"chronic, duration: 14 weeks, diet, M/F, Fischer 344, Absolute Organ Weight: Right kidney increase, Lung increase + Relative Organ Weight: Right kidney increase, Lungs increase + Histopathology…",< 78 mg/kg-day
same,NOEL,"chronic, duration: 14 weeks, gavage, M/F, Fischer 344, Deaths + Absolute Organ Weight: Liver increase, Thymus decrease + Relative Organ Weight: Right kidney increase, Liver increase, Uterus …",< 37.5 mg/kg-day
CCCCCCCC[N+](C)(C)Cc1ccccc1.[Cl-] [Benzyldimethyloctylammonium chloride],NOAEL,[1],15 mg/kg-day
same,NOEL,[1],15 mg/kg-day
"CC(C)=CC=C(C)C [2,5-Dimethyl-2,4-hexadiene]",NOEL,"subchronic, gavage, M, Sprague-Dawley, Clinical Observation: Soiled peri-genital + Body Weight Changes: decrease + Food Consumption: decrease(day1-8) + Hematology: WBC increase, …",< 100 mg/kg-day
CCc1ccc(C)nc1 [5-Ethyl-2-methylpyridine],NOAEL,"short-term, duration: 28 days, gavage, M/F, Sprague-Dawley, Body Weight Changes: decrease + Food Consumption: decrease + Blood Chemistry: BUN increase, CRE increase, AST increase + Relative Organ …",30 mg/kg-day
"CN1CCN(C)C1=O [1,3-Dimethyl-2-imidazolidinone]",NOEL,"subchronic, gavage, M, Sprague-Dawley, Body Weight Changes: Gain decrease(trend) + Blood Chemistry: TG increase, T-Cho increase(trend)TP decrease, R a1-glb decrease, R beta-glb …",20 mg/kg-day
O=C1OC(=O)c2c(Cl)c(Cl)c(Cl)c(Cl)c21 [Tetrachlorophthalic anhydride],NOEL,"subchronic, gavage, M/F, Fischer 344, Deaths + Body Weight Changes: decrease + Blood Chemistry: gamma-GTP increase, Glu decrease + Absolute Organ Weight: Spleen decrease, Right …",< 94 mg/kg-day
"FC(F)(F)C1(F)C(F)(F)C(F)(F)C(F)(F)C(F)(F)C1(F)C(F)(F)F (stereo unspecified) [Perfluoro-1,2-dimethylcyclohexane]",NOEL,"subchronic, duration: 42 days, gavage, M, CD(SD), Hematology: HGB decrease, HCT decrease + Histopathology: Liver-Hypertrophy, hepatocyte, central",300 mg/kg-day
O=P([O-])(O)CN(CCN(CCN(CP(=O)(O)O)CP(=O)(O)O)CP(=O)(O)O)CP(=O)(O)O.[Na+],NOAEL,"subchronic, duration: 90 days, diet, M/F, Wistar, Hematology: RBC increase, MCV decrease, MCH decrease, HGB decrease, MCHC decrease + Absolute Organ Weight: Liver decrease",96 mg/kg-day
"COCC(CCC(C)C)(COC)C(C)C [3,3-Bis(methoxymethyl)-2,6-dimethylheptane]",NOEL,"short-term, duration: 28 days, gavage, M/F, Clinical Observation: Salivation + Blood Chemistry: BIL increase, CL decrease + Absolute Organ Weight: Liver increase + Relative Organ …",8 mg/kg-day
C=Cc1ccc(OC(C)(C)C)cc1 [4-tert-Butoxystyrene],NOEL,"short-term, duration: 28 days, gavage, M/F, Deaths + Clinical Observation: Salivation + Body Weight Changes: Body weight gain decrease + Food Consumption: decrease + Urinalysis: Urine…",20 mg/kg-day
"O=C1CCCCC1C1=CCCCC1 (stereo unspecified) [Cyclohexanone, 2-(1-cyclohexen-1-yl)-]",NOEL,"subchronic, gavage, M, Sprague-Dawley, Clinical Observation: Salivation + Body Weight Changes: decrease + Blood Chemistry: gamma-GTP increase, TP increase, Alb increase, T-Cho …",40 mg/kg-day
O=C(OOC(=O)c1ccccc1)c1ccccc1 [Benzoyl peroxide],NOAEL,"short-term, duration: 28 days, gavage, M, Sprague-Dawley, Absolute Organ Weight: Testes decrease + Relative Organ Weight: Testes decrease, Epididymis decrease + Histopathology: Testes: Degeneration",500 mg/kg-day
CC(=O)Nc1cc(Nc2nc(Nc3ccc(N=Nc4cccc(S(=O)(=O)[O-])c4)c(NC(C)=O)c3)nc(N3CCOCC3)n2)ccc1N=Nc1cccc(S(=O)(=O)[O-])c1.[Na+].[Na+],NOEL,"short-term, duration: 28 days, gavage, M/F, Urinalysis: Bil increase + Blood Chemistry: T-Bil increase, UA increase",200 mg/kg-day
O=C1c2ccccc2C(=O)c2ccccc21 [Anthraquinone],NOAEL,[2],< 200 mg/kg-day
same,NOEL,[2],< 200 mg/kg-day
NC1=CC(=O)C(N=Nc2ccc(Nc3ccc(N=Nc4c(S(=O)(=O)[O-])cc5c(c4N)C(=O)C(N=Nc4ccccc4)C(S(=O)(=O)[O-])=C5)cc3S(=O)(=O)[O-])cc2)C=C1.[Na+].[Na+].[Na+] (stereo unspecified),NOEL,"short-term, duration: 28 days, gavage, M/F, Hematology: MET-HGB increase, RET increase, RBC decrease, HGB decrease, MCHC decrease, MCV increase, PCV decrease, MCH increase, HEINZ …",< 50 mg/kg-day
OCCOCCOCCO [Triethylene glycol],NOEL,"subchronic, duration: 13 weeks, diet, M/F, Fischer 344, Body Weight Changes: Mean body weight decrease, Body weight gain decrease + Urinalysis: Urinalysis', 'Volume increase, pH decrease + …",1920 mg/kg-day
Nc1cc(S(=O)(=O)[O-])cc2cc(S(=O)(=O)[O-])c(N=Nc3ccc(-c4ccc(N=Nc5c(S(=O)(=O)[O-])cc6cc(S(=O)(=O)[O-])cc(N)c6c5[O-])c([O-])c4)cc3[O-])c([O-])c12.[Cu+2].[Cu+2].[Na+].[Na+].[Na+].[Na+] [C.I. Direct Blue 218],NOEL,"subchronic, duration: 13 weeks, diet, F, Fischer 344, Body Weight Changes: decrease + Food Consumption: decrease + Hematology: Hct decrease, Hgb decrease + Blood Chemistry: ALT increase, , SDH …",200 mg/kg-day
same,NOEL,"subchronic, duration: 13 weeks, diet, M/F, Fischer 344, Body Weight Changes: decrease + Food Consumption: decrease + Hematology: Hct decrease, Hgb decrease + Blood Chemistry: ALT increase, , SDH …",< 288 mg/kg-day
Clc1ccc(OCCOCc2ccc(COCCOc3ccc(Cl)cc3)cc2)cc1,NOEL,"short-term, duration: 28 days, gavage, M/F, Body Weight Changes: Body weight gain decrease + Food Consumption: decrease + Blood Chemistry: ALB increase, A/G increase + Organ Weight: …",8 mg/kg-day
CC(CO)OC(C)CO.CC(O)COCC(C)O (stereo unspecified) [Dipropylene glycol],NOAEL,[3],1000 mg/kg-day
same,NOEL,[3],200 mg/kg-day
C#CC(C)(C)O [2-Methyl-3-butyn-2-ol],NOAEL,"short-term, duration: 28 days, gavage, M/F, BOB:WISW, Deaths + Clinical Observation: Sedation Narcosis Hypothermia + Body Weight Changes: decrease + Food Consumption: decrease + Hematology: WBC …",50 mg/kg-day
